Test results as given in the NIST ThermoML archive (doi:10.1021/je034261a).

How the values were obtained:
[1] = for mass density: 101.33 kPa, Liquid; for Normal melting temperature / Glass transition temperature: DTA
[2] = molar heat capacity at constant pressure; conditions: 101.33 kPa, Liquid, Small sample (50 mg) DSC

CCCC[n+]1ccn(C)c1.O=S(=O)([N-]S(=O)(=O)C(F)(F)F)C(F)(F)F
Conditions | Normal melting temperature, Crystal [°C] | mass density, 296.45 K [kg/m3] | mass density, 304.15 K [kg/m3] | mass density, 313.45 K [kg/m3] | mass density, 323.35 K [kg/m3] | mass density, 333.75 K [kg/m3] | molar heat capacity at constant pressure, 298.15 K [J/K/mol] | molar heat capacity at constant pressure, 323.15 K [J/K/mol]
[1] | -2.0 | 1438.6 | 1433.6 | 1424.7 | 1414.2 | 1405.4 | – | –
[2] | – | – | – | – | – | – | 536.3 | 543.9

Conditions | Glass transition temperature [°C]
[1] | -86.0

CCC[n+]1ccn(C)c1C.O=S(=O)([N-]S(=O)(=O)C(F)(F)F)C(F)(F)F
Conditions | mass density, 295.15 K [kg/m3] | mass density, 304.25 K [kg/m3] | mass density, 313.65 K [kg/m3] | mass density, 324.35 K [kg/m3] | mass density, 335.15 K [kg/m3] | mass density, 344.65 K [kg/m3] | molar heat capacity at constant pressure, 298.15 K [J/K/mol] | molar heat capacity at constant pressure, 323.15 K [J/K/mol]
[1] | 1456.7 | 1454.2 | 1446.4 | 1438.6 | 1427.5 | 1415.5 | – | –
[2] | – | – | – | – | – | – | 554.5 | 558.7

Conditions | Glass transition temperature [°C]
[1] | -82.0

CCn1cc[n+](C)c1.O=S(=O)([N-]S(=O)(=O)C(F)(F)F)C(F)(F)F
Conditions | Normal melting temperature, Metastable crystal [°C] | mass density, 296.15 K [kg/m3] | mass density, 303.95 K [kg/m3] | mass density, 313.85 K [kg/m3] | mass density, 323.45 K [kg/m3] | mass density, 333.65 K [kg/m3] | molar heat capacity at constant pressure, 298.15 K [J/K/mol] | molar heat capacity at constant pressure, 323.15 K [J/K/mol]
[1] | -17.0 | 1521.3 | 1515.9 | 1506.5 | 1496.7 | 1485.8 | – | –
[2] | – | – | – | – | – | – | 524.3 | 532.2

Conditions | Glass transition temperature [°C]
[1] | -92.0

CCn1cc[n+](C)c1C.O=S(=O)([N-]S(=O)(=O)C(F)(F)F)C(F)(F)F
Conditions | Normal melting temperature, Crystal [°C] | mass density, 296.15 K [kg/m3] | mass density, 303.75 K [kg/m3] | mass density, 313.55 K [kg/m3] | mass density, 323.35 K [kg/m3] | mass density, 333.65 K [kg/m3] | molar heat capacity at constant pressure, 309.15 K [J/K/mol] | molar heat capacity at constant pressure, 323.15 K [J/K/mol]
[1] | 25.0 | 1491.3 | 1485.5 | 1476.9 | 1468 | 1457.2 | – | –
[2] | – | – | – | – | – | – | 492.7 | 498.8

CCCCn1cc[n+](C)c1C.F[P-](F)(F)(F)(F)F [1-butyl-2,3-dimethylimidazolium hexafluorophosphate]
Conditions | mass density, 295.65 K [kg/m3] | mass density, 313.15 K [kg/m3] | mass density, 323.15 K [kg/m3] | molar heat capacity at constant pressure, 298.15 K [J/K/mol] | molar heat capacity at constant pressure, 323.15 K [J/K/mol]
[1] | 1241.6 | 1219 | 1205.5 | – | –
[2] | – | – | – | 433.6 | 449.1

Conditions | Glass transition temperature [°C]
[1] | -58.0

CCCCn1cc[n+](C)c1C.F[B-](F)(F)F [1-butyl-2,3-dimethylimidazolium tetrafluoroborate]
Conditions | Normal melting temperature, Crystal [°C] | mass density, 300.15 K [kg/m3] | mass density, 313.15 K [kg/m3] | mass density, 323.15 K [kg/m3] | molar heat capacity at constant pressure, 330.15 K [J/K/mol] | molar heat capacity at constant pressure, 372.15 K [J/K/mol]
[1] | 37.0 | 1093.5 | 1076.2 | 1063.4 | – | –
[2] | – | – | – | – | 375.3 | 406.5

Conditions | Glass transition temperature [°C]
[1] | -68.0

CCCCn1cc[n+](C)c1.[Br-] [1-butyl-3-methylimidazolium bromide]
Conditions | Glass transition temperature [°C]
[1] | -50.0

[2]
Conditions | molar heat capacity at constant pressure [J/K/mol]
298.15 K | 316.7
323.15 K | 323.6

CCCCn1cc[n+](C)c1.[Cl-] [1-butyl-3-methylimidazolium chloride]
Conditions | Glass transition temperature [°C]
[1] | -69.0

[2]
Conditions | molar heat capacity at constant pressure [J/K/mol]
298.15 K | 322.7
323.15 K | 333.7

CCCCn1cc[n+](C)c1.N#CN=C=[N-] [1-butyl-3-methylimidazolium dicyanamide]
Conditions | Normal melting temperature, Crystal [°C] | mass density, 297.15 K [kg/m3] | mass density, 312.95 K [kg/m3] | mass density, 324.35 K [kg/m3] | mass density, 333.95 K [kg/m3] | mass density, 344.15 K [kg/m3] | mass density, 355.85 K [kg/m3] | molar heat capacity at constant pressure, 298.15 K [J/K/mol] | molar heat capacity at constant pressure, 323.15 K [J/K/mol]
[1] | -6.0 | 1058 | 1052.5 | 1046.6 | 1041.5 | 1034 | 1025.8 | – | –
[2] | – | – | – | – | – | – | – | 364.6 | 370

Conditions | Glass transition temperature [°C]
[1] | -90.0

CCCCn1cc[n+](C)c1.F[P-](F)(F)(F)(F)F [1-butyl-3-methylimidazolium hexafluorophosphate]
Conditions | Normal melting temperature, Crystal [°C] | molar heat capacity at constant pressure, 298.15 K [J/K/mol] | molar heat capacity at constant pressure, 323.15 K [J/K/mol]
[1] | 11.0 | – | –
[2] | – | 397.6 | 405.1

Conditions | Glass transition temperature [°C]
[1] | -76.0

CCCCn1cc[n+](C)c1.F[B-](F)(F)F [1-butyl-3-methylimidazolium tetrafluoroborate]
Conditions | mass density, 295.45 K [kg/m3] | mass density, 303.85 K [kg/m3] | mass density, 313.55 K [kg/m3] | mass density, 328.25 K [kg/m3] | mass density, 343.85 K [kg/m3] | molar heat capacity at constant pressure, 298.15 K [J/K/mol] | molar heat capacity at constant pressure, 323.15 K [J/K/mol]
[1] | 1204.8 | 1200.5 | 1194 | 1185 | 1173.7 | – | –
[2] | – | – | – | – | – | 351.5 | 358

Conditions | Glass transition temperature [°C]
[1] | -85.0

CCCCn1cc[n+](C)c1.O=S(=O)([O-])C(F)(F)F [1-butyl-3-methylimidazolium trifluoromethanesulfonate]
Conditions | Normal melting temperature, Crystal [°C] | mass density, 295.75 K [kg/m3] | mass density, 303.95 K [kg/m3] | mass density, 313.35 K [kg/m3] | mass density, 328.75 K [kg/m3] | mass density, 342.95 K [kg/m3] | molar heat capacity at constant pressure, 298.15 K [J/K/mol] | molar heat capacity at constant pressure, 323.15 K [J/K/mol]
[1] | 13.0 | 1301.3 | 1296.5 | 1289.4 | 1279 | 1270 | – | –
[2] | – | – | – | – | – | – | 417.2 | 423.1
